{"source": "patent US6066310A", "about": "“Diagnostic and therapeutic method for tumor using radiolabeled avidin” (Nihon Medi-Physics Co., Ltd., priority 1997, dated 2000)", "conditions": "2 hours after biotin, LS180 xenografted mice", "method": "LS 180-tumor xenografted mice received injection with 300 μg unlabeled avidin and 1-24 hours later injection with 0.3 μg In-111 labeled biotin. […] After 2 hours from the injection of biotin, 4-5 mice per group were sacrificed and measured for distribution of radioactivity.", "key": {"[1]": {"conditions": "biotin 1 hr after pre-targeting of avidin"}, "[2]": {"conditions": "biotin 4 hr after pre-targeting of avidin"}, "[3]": {"conditions": "biotin 8 hr after pre-targeting of avidin"}, "[4]": {"conditions": "biotin 24 hr after pre-targeting of avidin"}, "[5]": {"conditions": "without pre-targeting of avidin"}}, "note": "Read-outs that look alike come from different tables or passages of the source.", "data": [{"smiles": "O=C([O-])CN(CCN(CC(=O)[O-])CC(=O)NC(CCCCNC(=O)CCCCC1SCC2NC(=O)NC21)C(=O)O)CCN(CC(=O)[O-])CC(=O)NC(CCCCNC(=O)CCCCC1SCC2NC(=O)NC21)C(=O)O.[111In+3]", "note": "(stereo not drawn) [radiolabeled biotin]", "values": [{"measurement": "Tumor/Blood ratio of radioactivity", "setting": "[1]", "value": "160.3 ± 26.9"}, {"measurement": "Tumor/Bone ratio of radioactivity", "setting": "[1]", "value": "60.7 ± 13.7"}, {"measurement": "Tumor/Kidney ratio of radioactivity", "setting": "[1]", "value": "3.48 ± 0.94"}, {"measurement": "Tumor/Liver ratio of radioactivity", "setting": "[1]", "value": "4.19 ± 1.45"}, {"measurement": "Tumor/Spleen ratio of radioactivity", "setting": "[1]", "value": "5.14 ± 2.58"}, {"measurement": "radioactivity per 1 g of organ: Blood", "setting": "[1]", "value": "0.38 ± 0.08"}, {"measurement": "radioactivity per 1 g of organ: Bone", "setting": "[1]", "value": "0.99 ± 0.08"}, {"measurement": "radioactivity per 1 g of organ: Intestine", "setting": "[1]", "value": "1.03 ± 0.30"}, {"measurement": "radioactivity per 1 g of organ: Kidney", "setting": "[1]", "value": "17.44 ± 2.16"}, {"measurement": "radioactivity per 1 g of organ: Liver", "setting": "[1]", "value": "14.77 ± 2.84"}, {"measurement": "radioactivity per 1 g of organ: Lung", "setting": "[1]", "value": "1.07 ± 0.91"}, {"measurement": "radioactivity per 1 g of organ: Muscle", "setting": "[1]", "value": "0.10 ± 0.06"}, {"measurement": "radioactivity per 1 g of organ: Spleen", "setting": "[1]", "value": "12.85 ± 4.02"}, {"measurement": "radioactivity per 1 g of organ: Stomach", "setting": "[1]", "value": "3.24 ± 0.63"}, {"measurement": "radioactivity per 1 g of organ: Tumor", "setting": "[1]", "value": "59.28 ± 9.89"}, {"measurement": "Tumor/Blood ratio of radioactivity", "setting": "[2]", "value": "159.0 ± 50.9"}, {"measurement": "Tumor/Bone ratio of radioactivity", "setting": "[2]", "value": "107.3 ± 79.1"}, {"measurement": "Tumor/Kidney ratio of radioactivity", "setting": "[2]", "value": "12.26 ± 2.75"}, {"measurement": "Tumor/Liver ratio of radioactivity", "setting": "[2]", "value": "20.89 ± 5.43"}, {"measurement": "Tumor/Spleen ratio of radioactivity", "setting": "[2]", "value": "22.03 ± 9.18"}, {"measurement": "radioactivity per 1 g of organ: Blood", "setting": "[2]", "value": "0.25 ± 0.03"}, {"measurement": "radioactivity per 1 g of organ: Bone", "setting": "[2]", "value": "0.60 ± 0.45"}, {"measurement": "radioactivity per 1 g of organ: Intestine", "setting": "[2]", "value": "0.27 ± 0.06"}, {"measurement": "radioactivity per 1 g of organ: Kidney", "setting": "[2]", "value": "3.30 ± 0.94"}, {"measurement": "radioactivity per 1 g of organ: Liver", "setting": "[2]", "value": "1.92 ± 0.58"}, {"measurement": "radioactivity per 1 g of organ: Lung", "setting": "[2]", "value": "0.32 ± 0.11"}, {"measurement": "radioactivity per 1 g of organ: Muscle", "setting": "[2]", "value": "0.32 ± 0.22"}, {"measurement": "radioactivity per 1 g of organ: Spleen", "setting": "[2]", "value": "2.14 ± 1.24"}, {"measurement": "radioactivity per 1 g of organ: Stomach", "setting": "[2]", "value": "1.08 ± 0.44"}, {"measurement": "radioactivity per 1 g of organ: Tumor", "setting": "[2]", "value": "39.31 ± 11.3"}, {"measurement": "Tumor/Blood ratio of radioactivity", "setting": "[3]", "value": "52.6 ± 23.9"}, {"measurement": "Tumor/Bone ratio of radioactivity", "setting": "[3]", "value": "59.22 ± 35.9"}, {"measurement": "Tumor/Kidney ratio of radioactivity", "setting": "[3]", "value": "7.18 ± 2.66"}, {"measurement": "Tumor/Liver ratio of radioactivity", "setting": "[3]", "value": "48.14 ± 20.2"}, {"measurement": "Tumor/Spleen ratio of radioactivity", "setting": "[3]", "value": "40.87 ± 15.0"}, {"measurement": "radioactivity per 1 g of organ: Blood", "setting": "[3]", "value": "0.20 ± 0.03"}, {"measurement": "radioactivity per 1 g of organ: Bone", "setting": "[3]", "value": "0.20 ± 0.07"}, {"measurement": "radioactivity per 1 g of organ: Intestine", "setting": "[3]", "value": "0.11 ± 0.02"}, {"measurement": "radioactivity per 1 g of organ: Kidney", "setting": "[3]", "value": "1.41 ± 0.29"}, {"measurement": "radioactivity per 1 g of organ: Liver", "setting": "[3]", "value": "0.21 ± 0.04"}, {"measurement": "radioactivity per 1 g of organ: Lung", "setting": "[3]", "value": "0.19 ± 0.10"}, {"measurement": "radioactivity per 1 g of organ: Muscle", "setting": "[3]", "value": "0.06 ± 0.03"}, {"measurement": "radioactivity per 1 g of organ: Spleen", "setting": "[3]", "value": "0.26 ± 0.13"}, {"measurement": "radioactivity per 1 g of organ: Stomach", "setting": "[3]", "value": "0.13 ± 0.09"}, {"measurement": "radioactivity per 1 g of organ: Tumor", "setting": "[3]", "value": "10.49 ± 5.16"}, {"measurement": "Tumor/Blood ratio of radioactivity", "setting": "[4]", "value": "9.72 ± 2.07"}, {"measurement": "Tumor/Bone ratio of radioactivity", "setting": "[4]", "value": "9.42 ± 2.29"}, {"measurement": "Tumor/Kidney ratio of radioactivity", "setting": "[4]", "value": "1.39 ± 0.40"}, {"measurement": "Tumor/Liver ratio of radioactivity", "setting": "[4]", "value": "11.20 ± 3.77"}, {"measurement": "Tumor/Spleen ratio of radioactivity", "setting": "[4]", "value": "14.75 ± 5.59"}, {"measurement": "radioactivity per 1 g of organ: Blood", "setting": "[4]", "value": "0.15 ± 0.07"}, {"measurement": "radioactivity per 1 g of organ: Bone", "setting": "[4]", "value": "0.17 ± 0.13"}, {"measurement": "radioactivity per 1 g of organ: Intestine", "setting": "[4]", "value": "1.18 ± 1.35"}, {"measurement": "radioactivity per 1 g of organ: Kidney", "setting": "[4]", "value": "1.01 ± 0.23"}, {"measurement": "radioactivity per 1 g of organ: Liver", "setting": "[4]", "value": "0.13 ± 0.02"}, {"measurement": "radioactivity per 1 g of organ: Lung", "setting": "[4]", "value": "0.13 ± 0.06"}, {"measurement": "radioactivity per 1 g of organ: Muscle", "setting": "[4]", "value": "0.12 ± 0.16"}, {"measurement": "radioactivity per 1 g of organ: Spleen", "setting": "[4]", "value": "0.10 ± 0.01"}, {"measurement": "radioactivity per 1 g of organ: Stomach", "setting": "[4]", "value": "1.49 ± 1.61"}, {"measurement": "radioactivity per 1 g of organ: Tumor", "setting": "[4]", "value": "1.45 ± 0.70"}, {"measurement": "Tumor/Blood ratio of radioactivity", "setting": "[5]", "value": "5.78 ± 2.44"}, {"measurement": "Tumor/Bone ratio of radioactivity", "setting": "[5]", "value": "5.97 ± 3.51"}, {"measurement": "Tumor/Kidney ratio of radioactivity", "setting": "[5]", "value": "0.55 ± 0.22"}, {"measurement": "Tumor/Liver ratio of radioactivity", "setting": "[5]", "value": "3.90 ± 1.32"}, {"measurement": "Tumor/Spleen ratio of radioactivity", "setting": "[5]", "value": "3.94 ± 1.79"}, {"measurement": "radioactivity per 1 g of organ: Blood", "setting": "[5]", "value": "0.12 ± 0.03"}, {"measurement": "radioactivity per 1 g of organ: Bone", "setting": "[5]", "value": "0.25 ± 0.34"}, {"measurement": "radioactivity per 1 g of organ: Intestine", "setting": "[5]", "value": "0.49 ± 0.46"}, {"measurement": "radioactivity per 1 g of organ: Kidney", "setting": "[5]", "value": "1.23 ± 0.21"}, {"measurement": "radioactivity per 1 g of organ: Liver", "setting": "[5]", "value": "0.17 ± 0.05"}, {"measurement": "radioactivity per 1 g of organ: Lung", "setting": "[5]", "value": "0.14 ± 0.05"}, {"measurement": "radioactivity per 1 g of organ: Muscle", "setting": "[5]", "value": "0.20 ± 0.27"}, {"measurement": "radioactivity per 1 g of organ: Spleen", "setting": "[5]", "value": "0.18 ± 0.05"}, {"measurement": "radioactivity per 1 g of organ: Stomach", "setting": "[5]", "value": "0.12 ± 0.03"}, {"measurement": "radioactivity per 1 g of organ: Tumor", "setting": "[5]", "value": "0.70 ± 0.35"}]}]}
